# Reference: patent EP0364581A1, “METHOD OF STERILIZING PLANT POLLEN” (VSESOJUZNY NAUCHNO-ISSLEDOVATELSKY INST. SELSKOKHOZYAISTV. …, priority 1988, dated 1989)
# How the values were obtained:
# Test in all cases: field test of gametocidal activity (sterilisation of anthers)
# [1] = system: Winterweizens Sorte Priboi; format: in vivo, Winterweizen; details: V. und VI. Periode, 2%ige wäßrige Emulsion, 12 kg/ha; for Prozentsatz des Ansetzens der Körner bei freier Bestäubung: control = 100
# From the text: (§1) Die gametozide Aktivität der erfindungsgemäßen Sterilisationsmittel war in Feldversuch in verschiedenen bodenklimatischen Zonen mit Teilstücken von 10 m^2 Größe in drei-- bis viermaliger Wiederholung nachgewiesen. Jedes Sterilisationsmittel wurde mindestens 5 Jahre lang geprüft.
# (§2) Die Entwicklung der Perioden der Organogenese wird zytologisch überwacht. Die Behandlung von Pflanzen mit dem Sterilisationsmittel erfolgt am Anfang der fünften Periode der Organogenese nach Kupermann.
# (§3) Mit dem Ahrenschieben verwirklicht man die Isolierung von Hauptähren und anderen Stockwerken in Pergamentbeuteln. Bei Weizen und Tritikale werden Einzelisolatoren verwendet. Bei Roggen schließt man je 1 Ähre von 5 bis 7 verschiedenen nebeneinander befindlichen Pflanzen in einen gemeinsamen Isolator ein. Bei Hirse wird jede Rispe getrennt isoliert. Der Sterilitätsprozentsatz (X) für Weizen, Roggen, Tritikale und Hirse wird nach der Formel [formula]
# (§4) Samen von unbehandelten Kontrollpflanzen ermittelt.
# (§5) Die Kornzahl in nicht isolierten Ähren von Kontrollpflanzen wird bedingt für 100% Ansetzen bei freier Bestäubung angenommen.
# (§6) Um zuverlässige Angaben zu erhalten, verwendet man 20 bis 25 Isolatoren jeder Wiederholung für Weizen und Tritikale, 10 bis 15 Isolatoren jeder Wiederholung für Roggen und Hirse.
# Pflanzen des Winterweizens Sorte Priboi werden in der V. und VI. Periode der Organogenese (nach Kupermann) mit einer 2%igen wäßrigen Emulsion von Kaliumsalz der 2-Methyl--3-zyklohexenkarbonsäure, 2-Methyl-3-zyklohexenkarbonsäure- methylester, Pnthalsäuredipropylester, Phthalsäurediisobutylester behandelt. Die Emulsion enthält 0,01 Masse% Dimethylsulfoxid und 0,1 Masse% C12-C14 -Kalziumalkylbenzolsulfonat. Der Verbrauch an Präparat beträgt 12 kg/ha. Als Kontrolle dienen Pflanzen, behandelt mit einem Verdünner ohne Sterilisationsmittel.
# [2] = system: Winterweizens Sorte Kharkovskaya 81; format: in vivo, Winterweizen; details: V. und VI. Periode, 2%ige wäßrige Emulsion, 12 kg/ha; for Prozentsatz des Ansetzens der Körner bei freier Bestäubung: control = 100
# From the text: as §1, §2, §3, §4, §5, §6
# Pflanzen des Winterweizens Sorte Kharkovskaya 81 werden in der V. und VI. Periode der Organogenese (nach Kupermann) mit einer 2%igen wäßrigen Emulsion von Natriumsalz der 2-Methyl-3-zyklohexenkarbonsäure, Phthalsäuredihexylester, Ammoniumsalz der 2-Methyl-3-zyklohexenkarbon- säure, Phthalsäuredibutylester, Phthalsäurediallylester behandelt. Die Emulsion enthält 0,01 Masse% Dodezylsulfat und 0,1 Masse% C12-C14 -Kalziumalkylbenzolsulfonat. Der Verbrauch an Präparat beträgt 12 kg/ha.
# Die Prüfergebnisse sind in der Tabelle 4 angeführt. Als Kontrolle dienten Pflanzen, behandelt ähnlich wie in Beispiel 1.
# [3] = system: Tritikale der Sorte PRAG-109; format: in vivo; details: V. Periode, 1%ige wäßrige Emulsion, 10 kg/ha
# From the text: as §1, §2, §3, §4, §5, §6
# Pflanzen Tritikale der Sorte PRAG-109 werden in der V. Periode der Organogenese (nach Kupermann) mit einer 1%igen wäßrigen Emulsion von Phthalsäuredibutylester, Phthalsäurediäthylester, Phthalsäuredihexylester, Phthalsäurediisobutylester, Kaliumsalz der 2-Methyl-3-zyklohexenkarbon- säure, 2-Methyl-3-zyklohexenkarbonsäuremethylester behandelt. Die Emulsion enthält 0,01 Masse% Dimethylsulfoxid und 0,1 Masse% C12C14- Kalziumalkylbenzolsulfonat. Der Verbrauch an Präparat beträgt 10 kg/ha. Als Kontrolle dienen Pflanzen, behandelt mit einem Verdünner ohne Sterilisationsmittel. […]
# In allen Fällen dienen als Kontrolle Pflanzen, behandelt mit einem Verdünner ohne Sterilisationsmittel. Die Prüfergebnisse sind in der Tabelle 20 angeführt. […] Periode der Organogenese erhalten.
# [4] = system: Sommerweizens Sorte Botanicheskaya 4; format: in vivo, Sommerweizen; details: V. Periode, 1%ige wäßrige Emulsion, 8 kg/ha; for Prozentsatz des Ansetzens der Körner bei freier Bestäubung: control = 100
# From the text: as §1, §2, §3, §4, §5, §6
# Pflanzen des Sommerweizens Sorte Botanicheskaya 4 werden in der V. Periode der Organogenese (nach kupermann) mit einer l%igen wäßrigen Emulsion von Phthalsäuredibutylester, Phthalsauredipropylester, Natriumsalz der 2-Methyl-3-zyklo- hexenkarbonsäure, 2-Methyl-3-zyklohexenkarbonsäuremethyl- ester behandelt. Die Emulsion enthalt 0,01 Masse% Tetrahydrofuran und 0,1 Masse% C12-C14-Kalziumalkylbenzolsulfonat. Der Verbrauch an Präparat beträgt 8 kg/ha. Als Kontrolle dienen Pflanzen, behandelt mit einem Verdünner ohne Sterilisationsmittel
# [5] = system: Tritikale Sorte Amfidiploid 206; format: in vivo; details: V. Periode, 1%ige wäßrige Emulsion, 6 kg/ha; for Prozentsatz des Ansetzens bei freier Bestäubung: control = 100
# From the text: as §1, §2, §3, §4, §5, §6
# Pflanzen Tritikale Sorte Amfidiploid 206 werden in der V.Periode der Organogenese (nach Kupermann) mit einer l%igen wäßrigen Emulsion von Phthalsäuredipropylester, Phthalsäurediisobutylester, Kaliumsalz der 2-Methyl-3-zyklohexenkarbon- säure, 2-Methyl-3-zyklohexenkarbonsäuremethylester, Ammoniumsalz der 2-Methyl-3-zyklohexenkarbonsäure behandelt. Die Emulsion enthält 0,01 Masse% Tetrahydrofuran und 0,1 Masse% C12-C14-Kalziumalkylbenzolsulfonat. Der Verbrauch an Präparat beträgt 6 kg/ha. Als Kontrolle dienen Pflanzen, behandelt mit einem Verdünner ohne Sterilisationsmittel.
# [6] = system: tetraploidem Roggen Sorte Ukrainskaya; format: in vivo; details: V. Periode, wäßrige Emulsion (concentration not given), 6 kg/ha; for Prozentsatz des Ansetzens der Körner bei freier Bestäubung: control = 100
# From the text: as §1, §2, §3, §4, §5, §6
# Pflanzen von tetraploidem Roggen Sorte Ukrainskaya werden in der V. Periode der Organogenese (nach Kupermann) mit einer wäßrigen Emulsion von Ammoniumsalz der 2-Methyl-3--zyklohexenkarbonsäure, Phthalsäurediäthylester, Kaliumsalz der Benzoesäure, Phthalsäurediisobutylester behandelt. Die Emulsion enthält 0,01 Masse% Dimethylformamid und 0,1 Masse% C12-C14-Kalziumalkylbenzolsulfonat. Der Verbrauch an Präparat beträgt 6 kg/ha. Als Kontrolle dienen Pflanzen, behandelt mit einem Verdünner ohne Sterilisationsmittel. Die Prüfergebnisse sind in der Tabelle 11 angeführt. […] Periode der Organogenese erhalten.
structure (smiles),measurement,setting,value
"CC1C=CCCC1C(=O)[O-].[K+] (stereo not shown) [Beispiel 14, Kaliumsalz der 2-Methyl--3-zyklohexenkarbonsäure]",Kornzahl der Ähre bei freier Bestäubung,[1],"35,1"
same,Kornzahl der Ähre im Isolator,[1],"0,0"
same,Prozentsatz der Sterilität,[1],"100,0%"
same,Prozentsatz des Ansetzens der Körner bei freier Bestäubung,[1],"95,4%"
"COC(=O)C1CCC=CC1C (stereo not shown) [Beispiel 15, 2-Methyl-3-zyklohexenkarbonsäure-methylester]",Kornzahl der Ähre bei freier Bestäubung,[1],"34,8"
same,Kornzahl der Ähre im Isolator,[1],"0,0"
same,Prozentsatz der Sterilität,[1],"100,0%"
same,Prozentsatz des Ansetzens der Körner bei freier Bestäubung,[1],"94,6%"
"CCCOC(=O)c1ccccc1C(=O)OCCC [Beispiel 16, Pnthalsäuredipropylester]",Kornzahl der Ähre bei freier Bestäubung,[1],"32,6"
same,Kornzahl der Ähre im Isolator,[1],"5,6"
same,Prozentsatz der Sterilität,[1],"82,6%"
same,Prozentsatz des Ansetzens der Körner bei freier Bestäubung,[1],"88,6%"
"CC(C)COC(=O)c1ccccc1C(=O)OCC(C)C [Beispiel 17, Phthalsäurediisobutylester]",Kornzahl der Ähre bei freier Bestäubung,[1],"33,7"
same,Kornzahl der Ähre im Isolator,[1],"0,0"
same,Prozentsatz der Sterilität,[1],"100,0%"
same,Prozentsatz des Ansetzens der Körner bei freier Bestäubung,[1],"91,6%"
"CCCCCCOC(=O)c1ccccc1C(=O)OCCCCCC [Beispiel 19, Phthalsäuredihexylester]",Kornzahl der Ähre bei freier Bestäubung,[2],"30,8"
same,Kornzahl der Ähre im Isolator,[2],"0,0"
same,Prozentsatz der Sterilität,[2],"100,0%"
same,Prozentsatz des Ansetzens der Körner bei freier Bestäubung,[2],"90,8%"
"CC1C=CCCC1C(=O)O.N (stereo not shown) [Beispiel 20, Ammoniumsalz der 2-Methyl-3-zyklohexenkarbon-säure]",Kornzahl der Ähre bei freier Bestäubung,[2],"31,7"
same,Kornzahl der Ähre im Isolator,[2],"0,0"
same,Prozentsatz der Sterilität,[2],"100,0%"
same,Prozentsatz des Ansetzens der Körner bei freier Bestäubung,[2],"93,5%"
"CCCCOC(=O)c1ccccc1C(=O)OCCCC [Beispiel 21, Phthalsäuredibutylester]",Kornzahl der Ähre bei freier Bestäubung,[2],"28,6"
same,Kornzahl der Ähre im Isolator,[2],"0,0"
same,Prozentsatz der Sterilität,[2],"100,0%"
same,Prozentsatz des Ansetzens der Körner bei freier Bestäubung,[2],"84,4%"
"C=CCOC(=O)c1ccccc1C(=O)OCC=C [Beispiel 22, Phthalsäurediallylester]",Kornzahl der Ähre bei freier Bestäubung,[2],"30,6"
same,Kornzahl der Ähre im Isolator,[2],"3,1"
same,Prozentsatz der Sterilität,[2],"90,3%"
same,Prozentsatz des Ansetzens der Körner bei freier Bestäubung,[2],"90,3%"
"CCCCOC(=O)c1ccccc1C(=O)OCCCC [Beispiel 30, Phthalsäuredibutylester]",Kornzahl der Ähre bei freier Bestäubung,[3],"66,8"
same,Kornzahl der Ähre im Isolator,[3],"1,0"
same,Prozentsatz der Sterilität,[3],"98,4%"
same,Prozentsatz des Ansetzens der Körner bei freier Bestäubung,[3]; control = 100,"96,8%"
same,Kornzahl der Ähre bei freier Bestäubung,[4],"30,6"
same,Kornzahl der Ähre im Isolator,[4],"0,2"
same,Prozentsatz der Sterilität,[4],"99,4%"
same,Prozentsatz des Ansetzens der Körner bei freier Bestäubung,[4],"81,8%"
"CCCOC(=O)c1ccccc1C(=O)OCCC [Beispiel 31, Phthalsauredipropylester]",Kornzahl der Ähre bei freier Bestäubung,[4],"31,5"
same,Kornzahl der Ähre im Isolator,[4],"0,5"
same,Prozentsatz der Sterilität,[4],"98,5%"
same,Prozentsatz des Ansetzens der Körner bei freier Bestäubung,[4],"84,2%"
"CC1C=CCCC1C(=O)[O-].[Na+] (stereo not shown) [Beispiel 32, Natriumsalz der 2-Methyl-3-zyklo-hexenkarbonsäure]",Kornzahl der Ähre bei freier Bestäubung,[4],"32,9"
same,Kornzahl der Ähre im Isolator,[4],"1,0"
same,Prozentsatz der Sterilität,[4],"97,0%"
same,Prozentsatz des Ansetzens der Körner bei freier Bestäubung,[4],"88,0%"
"COC(=O)C1CCC=CC1C (stereo not shown) [Beispiel 33, 2-Methyl-3-zyklohexenkarbonsäuremethyl-ester]",Kornzahl der Ähre bei freier Bestäubung,[4],"34,2"
same,Kornzahl der Ähre im Isolator,[4],"0,0"
same,Prozentsatz der Sterilität,[4],"100,0%"
same,Prozentsatz des Ansetzens der Körner bei freier Bestäubung,[4],"91,4%"
"CCCOC(=O)c1ccccc1C(=O)OCCC [Beispiel 43, Phthalsäuredipropylester]",Kornzahl der Ähre bei freier Bestäubung,[5],"31,8"
same,Kornzahl der Ähre im Isolator,[5],"0,0"
same,Prozentsatz der Sterilität,[5],"100,0%"
same,Prozentsatz des Ansetzens bei freier Bestäubung,[5],"87,3%"
"CC(C)COC(=O)c1ccccc1C(=O)OCC(C)C [Beispiel 44, Phthalsäurediisobutylester]",Kornzahl der Ähre bei freier Bestäubung,[5],"32,5"
same,Kornzahl der Ähre im Isolator,[5],"0,0"
same,Prozentsatz der Sterilität,[5],"100,0%"
same,Prozentsatz des Ansetzens bei freier Bestäubung,[5],"89,3%"
"CC1C=CCCC1C(=O)O (stereo not shown) [Beispiel 45, Kaliumsalz der 2-Methyl-3-zyklohexenkarbon-säure]",Kornzahl der Ähre bei freier Bestäubung,[5],"31,8"
same,Kornzahl der Ähre im Isolator,[5],"0,1"
same,Prozentsatz der Sterilität,[5],"99,7%"
same,Prozentsatz des Ansetzens bei freier Bestäubung,[5],"87,3%"
"COC(=O)C1CCC=CC1C (stereo not shown) [Beispiel 46, 2-Methyl-3-zyklohexenkarbonsäuremethylester]",Kornzahl der Ähre bei freier Bestäubung,[5],"32,6"
same,Kornzahl der Ähre im Isolator,[5],"0,0"
same,Prozentsatz der Sterilität,[5],"100,0%"
same,Prozentsatz des Ansetzens bei freier Bestäubung,[5],"89,6%"
"CC1C=CCCC1C(=O)O (stereo not shown) [Beispiel 47, Ammoniumsalz der 2-Methyl-3-zyklohexenkarbonsäure]",Kornzahl der Ähre bei freier Bestäubung,[5],"37,5"
same,Kornzahl der Ähre im Isolator,[5],"6,8"
same,Prozentsatz der Sterilität,[5],"79,7%"
same,Prozentsatz des Ansetzens bei freier Bestäubung,[5],"103,1%"
"CC1C=CCCC1C(=O)O (stereo not shown) [Beispiel 56, Ammoniumsalz der 2-Methyl-3--zyklohexenkarbonsäure]",Kornzahl der Ähre bei freier Bestäubung,[6],"32,1"
same,Kornzahl der Ähre im Isolator,[6],"0,0"
same,Prozentsatz der Sterilität,[6],"100,0%"
same,Prozentsatz des Ansetzens der Körner bei freier Bestäubung,[6],"87,2%"
"CCOC(=O)c1ccccc1C(=O)OCC [Beispiel 57, Phthalsäurediäthylester]",Kornzahl der Ähre bei freier Bestäubung,[6],"30,7"
same,Kornzahl der Ähre im Isolator,[6],"0,0"
same,Prozentsatz der Sterilität,[6],"100,0%"
same,Prozentsatz des Ansetzens der Körner bei freier Bestäubung,[6],"83,4%"
"O=C(O)c1ccccc1 [Beispiel 58, Kaliumsalz der Benzoesäure]",Kornzahl der Ähre bei freier Bestäubung,[6],"35,8"
same,Kornzahl der Ähre im Isolator,[6],"4,2"
same,Prozentsatz der Sterilität,[6],"85,0%"
same,Prozentsatz des Ansetzens der Körner bei freier Bestäubung,[6],"97,3%"
"CC(C)COC(=O)c1ccccc1C(=O)OCC(C)C [Beispiel 59, Phthalsäurediisobutylester]",Kornzahl der Ähre bei freier Bestäubung,[6],"34,7"
same,Kornzahl der Ähre im Isolator,[6],"0,0"
same,Prozentsatz der Sterilität,[6],"100,0%"
same,Prozentsatz des Ansetzens der Körner bei freier Bestäubung,[6],"94,2%"
